Results from US7455861B2, “Angelicae sinensis extracts useful for treatment of cancers” (priority 2004, dated 2008).
Converted amounts (≈) assume the structure as drawn.

Legend:
RG2 = assay: Cytotoxicity (IC50) on RG2; type: cell-based, rat; conditions: for IC50: Table 1, value in parentheses; for Cytotoxicity, IC50 RG2: cancer cells, Table 1
Experimental: (§1) Human tumor cell lines (MCF-7, CL1-5, HT-29, Caco-2), human umbilical vascular endothelial cells (HUVEC), and human dermal fibroblasts (HDF) were tested for sensitivity on Angelicae sinensis extracts, ligustilide, n-butylidenephthalide and its derivatives in vitro. The DBTRG-05MG, BCM, HL-60 and J5 cells were grown in RPMI-1640 medium containing 10% fetal calf serum and 100 ng/ml penicillin and […] streptomycin at 37° C. in a humidified atmosphere with 5% CO2. The G5T/VGH, RG2, Ni 8, SVEC and Balb/3T3 cells were cultured in DMEM with 10% fetal calf serum and 100 ng/ml penicillin and […] streptomycin at 37° C. in 5% CO2. Mycoplasma infection of the culture cells was excluded by PCR screening methods before each experiment.
(§2) The effects on cell viability after the treatments with different concentrations of the Angelicae sinensis extracts or the active components purified therefrom were evaluated by modified MTT assay in triplicate. Briefly, the cells (5×10^3) were incubated into 96-well plates containing 100 μl of a growth medium. The cells were permitted to adhere for 24 hours, then treated with 100 μl of the herbal extracts or the active components dissolved in the medium. The control contained DMSO of <0.02% (v/v). After 24, 48 and 72 h incubation, the drug-containing medium was replaced by 50 μl of fresh medium, and cells in each well were incubated in 50 μl of 400 μg/ml MTT for 6-8 h. The medium and MTT were removed later and 100 μl of DMSO was added to each well and to the control, to dissolve the soluble components. Absorbance at 550 nm of the solutions was measured with MRX Microtiter Plate Luminometer (DYNEX, USA). The absorbance of untreated cells was considered as 100%. To evaluate the effects of the extracts or the active components on cell growth rate of GBM cells, 5×10^3 exponentially growing cells were treated with different concentrations for 24, 48, or 72 h. The cytotoxicity of each test substance was determined as an IC50 value, which represents the drug concentration required to cause 50% inhibition. All experiments in this study were performed in triplicate.

HDF = assay: Cytotoxicity (IC50) on HDF; type: cell-based, human; conditions: normal cells; for Cytotoxicity, IC50 HDF: Table 1; for IC50: Table 1, value in parentheses
Text: (§3) Human umbilical vascular endothelial cells (HUVECs) were purchased from Cascade Biologics, Inc. (USA). HUVECs were maintained in Medium 200 (Cascade Biologics, Inc. USA) supplemented with 10% fetal bovine serum (FBS; Gibco BRL) and low serum growth supplement (LSGS; Cascade Biologics, Inc. USA). Human dermal fibroblasts (HDFs) were purchased from Cascade Biologics, Inc. (USA). HDFs were maintained in Medium 106 (Cascade Biologics, Inc. USA) supplemented with 10% FBS and low serum growth supplement (LSGS; Cascade Biologics, Inc. USA). The human colon adenocarcinoma cell lines HT-29 were purchased from the ATCC (Manassas, Va. USA). HT-29 were maintained in Dubecco's Modified Eagle Medium (DMEM; Gibco) supplemented with 10% FBS and 100 ng/ml penicillin and […] streptomycin (Life Technologies, Inc., Grand Island, N.Y., USA). For the proliferation assay of cell in log growth (G1), the cells were harvested at 60-80% of confluence. 100 μl of cell suspensions were dispensed onto a Falcon 96-well plates The densities were 6×10^3 cells/well in Medium 200 (for HUVECs), and 9×10^3 cells/well in Medium 106 (for HDFs), and 5×10^3 cells/well in DMEM (for HT-29) supplemented with 10% FBS. The cells were pre-incubated for 24 hours in an incubator (Humidified atmosphere, e.g., at 37° C., 5% CO2). 10 μl of toxicant of various concentrations were added into the culture medium of the plate. The cell cultures were incubated for 48 hours. 10 μl of the Cell Counting Kit-8 (CCK-8; DOJINDO) solution were added and the cell cultures incubated for 1˜4 hours in the incubator. The absorbance was measured at 450 nm, using a microplate reader with a reference wavelength at 600 nm or over.
as §1
as §2, with “To evaluate the effects of the extracts or the active components on cell growth rate of GBM cells, 5×10^3 exponentially growing cells were treated with different concentrations for 24, 48, or 72 h. The cytotoxicity of each test substance was determined as an IC50 value, which represents the drug concentration required to cause 50% inhibition. All experiments in this study were performed in triplicate.” left out

HUVEC [1] = assay: Cytotoxicity (IC50) on HUVEC; type: cell-based, human; conditions: normal cells; for Cytotoxicity, IC50 HUVEC: Table 1; for IC50: Table 1, value in parentheses
Text: as §3, §1, §2

ETS-1 = assay: RT-PCR of ETS-1 in HUVEC; type: cell-based, human
MMP-2 = assay: RT-PCR of MMP-2 in HUVEC; type: cell-based, human
HUVEC [2] = assay: Tube formation of HUVEC; type: cell-based, human
G5T/VGH = assay: Cytotoxicity (IC50) on G5T/VGH; type: cell-based; conditions: Homo sapiens; Table 2
Experimental: as §1
The effects on cell viability after the treatments with different concentrations of the Angelicae sinensis extracts or the active components purified therefrom were evaluated by modified MTT assay in triplicate. Briefly, the cells (5×10^3) were incubated into 96-well plates containing 100 μl of a growth medium. The cells were permitted to adhere for 24 hours, then treated with 100 μl of the herbal extracts or the active components dissolved in the medium. The control contained DMSO of <0.02% (v/v). […] Absorbance at 550 nm of the solutions was measured with MRX Microtiter Plate Luminometer (DYNEX, USA). The absorbance of untreated cells was considered as 100%. […]

[3] = Cytotoxicity (IC50) on HUVEC; type: cell-based, human; conditions: human
Text: as §3, §1, §2

DBTRG-05MG = assay: Cytotoxicity (IC50) on DBTRG-05MG; type: cell-based; conditions: Homo sapiens, read-out: Cytotoxicity (IC50) DBTRG-05MG
Experimental: as §1
as §2, with “All experiments in this study were performed in triplicate.” left out

brain tumor cell lines = assay: Cytotoxicity (IC50) on brain tumor cell lines, pooled statement; type: cell-based; conditions: GBM tumors not sensitive
Experimental: as §2

## CCC/C=C1/OC(=O)c2ccccc21 [BP-E form]
RG2
  IC50: > 106 µM
  Cytotoxicity, IC50 RG2: >20 µg/mL
HDF
  Cytotoxicity, IC50 HDF: >100 µg/mL
  IC50: > 532 µM
HUVEC [1]
  Cytotoxicity, IC50 HUVEC: >100 µg/mL
  IC50: > 532 µM
ETS-1
  Inhibition RT-PCR ETS-1: 159.4 µg/mL

## CCC/C=C1\OC(=O)c2ccccc21 [BP-Z form]
MMP-2
  Inhibition RT-PCR MMP-2: 531.3 µg/mL
HUVEC [2]
  Inhibition Tube Formation: 159.4 µg/mL
RG2
  IC50: > 106 µM
  Cytotoxicity, IC50 RG2: >20 µg/mL
HDF
  Cytotoxicity, IC50 HDF: 65.25 µg/mL
  IC50: 347 µM
HUVEC [1]
  Cytotoxicity, IC50 HUVEC: >100 µg/mL
  IC50: > 532 µM
ETS-1
  Inhibition RT-PCR ETS-1: 159.4 µg/mL

## CC(=O)O[C@H]1C(=O)[C@@]2(C)[C@H]([C@H](OC(=O)c3ccccc3)[C@]3(O)C[C@H](OC(=O)[C@H](O)[C@@H](NC(=O)c4ccccc4)c4ccccc4)C(C)=C1C3(C)C)[C@]1(OC(C)=O)CO[C@@H]1C[C@@H]2O [Taxol, reference compound]
G5T/VGH
  IC50: < 0.1 µg/mL
[3]
  IC50: < 0.1 µg/mL
DBTRG-05MG
  IC50: 61 ± 3.3 µg/mL (≈ 71.4 µM)

## O=NN(CCCl)C(=O)NCCCl [carmustin, reference compound]
Brain tumor cell lines
  IC50 GBM tumors: > 100 µg/mL
